Measurements published in patent US20250282827A1, “LIPIDATED POLYMYXIN ANALOGUES” (priority 2021, published 2025).
Converted amounts (≈) assume the structure as drawn. Positions of bridges follow the written chain, without caps; N, C: chain ends. Non-standard residues stand in square brackets, D forms with d. Residues, ends and D or L forms follow the SMILES beside them. *: point of attachment. CH2CH2OBz(4-tBu) = CC(C)(C)c1ccc(C(=O)OCC*)cc1; Ethyl(2-decanoyloxy) = CCCCCCCCCC(=O)OCC*; Ethyl(2-butanoyloxy) = CCCC(=O)OCC*; Ethyl(2-propionyloxy) = CCC(=O)OCC*; Ethyl(2-OPiv) = CC(C)(C)C(=O)OCC*; Ethyl(2-OBz) = O=C(OCC*)c1ccccc1; X14 = CCCCCCCCCCCC(=O)OCC*; hCys = N[C@@H](CCS)C(=O)O; Dab = NCC[C@H](N)C(=O)O; Dap = NC[C@H](N)C(=O)O; X4 = CCCCCCCC(=O)OCC*; X1 = CCCCCC(=O)OCC*; Mpa = O=C(O)CCS

Tested on: E. coli ATCC 25922
Assay type: cell-based, Escherichia coli
Details: ATCC 25922
Description: All 81 compounds prepared in Examples 2 and 3 underwent screening against a panel of Gram-negative bacterium to assess their ability to inhibit bacterial growth. […] The median value is presented.

MIC E. coli ATCC 25922 | Compound
>128 µg/mL | CCC(=O)OCCSC[C@H](N)C(=O)N[C@H](C(=O)N[C@@H](CCN)C(=O)N[C@H]1CCNC(=O)[C@H]([C@@H](C)O)NC(=O)[C@H](CCN)NC(=O)[C@H](CCN)NC(=O)[C@H](CC(C)C)NC(=O)[C@@H](Cc2ccccc2)NC(=O)[C@H](CCN)NC1=O)[C@@H](C)O [Compound 61] (H-C(Ethyl(2-propionyloxy))T[Dab][Dab][Dab][dF]L[Dab][Dab]T; lactam 4-C)
1 µg/mL (≈ 0.857 µM) | CCC(=O)OCCSC[C@@H](N)C(=O)N[C@H](C(=O)N[C@@H](CCN)C(=O)N[C@H]1CCNC(=O)[C@H]([C@@H](C)O)NC(=O)[C@H](CCN)NC(=O)[C@H](CCN)NC(=O)[C@H](CC(C)C)NC(=O)[C@@H](Cc2ccccc2)NC(=O)[C@H](CCN)NC1=O)[C@@H](C)O [Compound 62] (H-[dC](Ethyl(2-propionyloxy))T[Dab][Dab][Dab][dF]L[Dab][Dab]T; lactam 4-C)
>128 µg/mL | CCC(=O)OCCSCC[C@H](N)C(=O)N[C@H](C(=O)N[C@@H](CCN)C(=O)N[C@H]1CCNC(=O)[C@H]([C@@H](C)O)NC(=O)[C@H](CCN)NC(=O)[C@H](CCN)NC(=O)[C@H](CC(C)C)NC(=O)[C@@H](Cc2ccccc2)NC(=O)[C@H](CCN)NC1=O)[C@@H](C)O [Compound 64] (H-[hCys](Ethyl(2-propionyloxy))T[Dab][Dab][Dab][dF]L[Dab][Dab]T; lactam 4-C)
64 µg/mL (≈ 54.9 µM) | CCC(=O)OCCSC[C@H](N)C(=O)N[C@H](C(=O)N[C@@H](CCN)C(=O)N[C@H]1CCNC(=O)[C@H]([C@@H](C)O)NC(=O)[C@H](CCN)NC(=O)[C@H](CCN)NC(=O)[C@H](CC(C)C)NC(=O)[C@@H](Cc2ccccc2)NC(=O)[C@H](CCN)NC1=O)[C@@H](C)O [Compound 65] (H-C(Ethyl(2-propionyloxy))T[Dab][Dab][Dab][dF]L[Dab][Dab]T; lactam 4-C)
16 µg/mL (≈ 13.6 µM) | CCCC(=O)OCCSC[C@H](N)C(=O)N[C@H](C(=O)N[C@@H](CCN)C(=O)N[C@H]1CCNC(=O)[C@H]([C@@H](C)O)NC(=O)[C@H](CCN)NC(=O)[C@H](CCN)NC(=O)[C@H](CC(C)C)NC(=O)[C@@H](Cc2ccccc2)NC(=O)[C@H](CCN)NC1=O)[C@@H](C)O [Compound 66] (H-C(Ethyl(2-butanoyloxy))T[Dab][Dab][Dab][dF]L[Dab][Dab]T; lactam 4-C)
4 µg/mL (≈ 3.31 µM) | CCCCCC(=O)OCCSC[C@H](N)C(=O)N[C@H](C(=O)N[C@@H](CCN)C(=O)N[C@H]1CCNC(=O)[C@H]([C@@H](C)O)NC(=O)[C@H](CCN)NC(=O)[C@H](CCN)NC(=O)[C@H](CC(C)C)NC(=O)[C@@H](Cc2ccccc2)NC(=O)[C@H](CCN)NC1=O)[C@@H](C)O [Compound 67] (H-C(X1)T[Dab][Dab][Dab][dF]L[Dab][Dab]T; lactam 4-C)
2 µg/mL (≈ 1.71 µM) | CCC(=O)OCCSC[C@@H](N)C(=O)N[C@H](C(=O)N[C@@H](CCN)C(=O)N[C@H]1CCNC(=O)[C@H]([C@@H](C)O)NC(=O)[C@H](CCN)NC(=O)[C@H](CCN)NC(=O)[C@H](CC(C)C)NC(=O)[C@@H](Cc2ccccc2)NC(=O)[C@H](CCN)NC1=O)[C@@H](C)O [Compound 74] (H-[dC](Ethyl(2-propionyloxy))T[Dab][Dab][Dab][dF]L[Dab][Dab]T; lactam 4-C)
1 µg/mL (≈ 0.847 µM) | CCCC(=O)OCCSC[C@@H](N)C(=O)N[C@H](C(=O)N[C@@H](CCN)C(=O)N[C@H]1CCNC(=O)[C@H]([C@@H](C)O)NC(=O)[C@H](CCN)NC(=O)[C@H](CCN)NC(=O)[C@H](CC(C)C)NC(=O)[C@@H](Cc2ccccc2)NC(=O)[C@H](CCN)NC1=O)[C@@H](C)O [Compound 75] (H-[dC](Ethyl(2-butanoyloxy))T[Dab][Dab][Dab][dF]L[Dab][Dab]T; lactam 4-C)
0.125 µg/mL (≈ 0.103 µM) | CCCCCC(=O)OCCSC[C@@H](N)C(=O)N[C@H](C(=O)N[C@@H](CCN)C(=O)N[C@H]1CCNC(=O)[C@H]([C@@H](C)O)NC(=O)[C@H](CCN)NC(=O)[C@H](CCN)NC(=O)[C@H](CC(C)C)NC(=O)[C@@H](Cc2ccccc2)NC(=O)[C@H](CCN)NC1=O)[C@@H](C)O [Compound 76] (H-[dC](X1)T[Dab][Dab][Dab][dF]L[Dab][Dab]T; lactam 4-C)
16 µg/mL (≈ 13.9 µM) | CCC(=O)OCCSC[C@H](N)C(=O)N[C@H](C(=O)N[C@@H](CN)C(=O)N[C@H]1CCNC(=O)[C@H]([C@@H](C)O)NC(=O)[C@H](CCN)NC(=O)[C@H](CCN)NC(=O)[C@H](CC(C)C)NC(=O)[C@@H](Cc2ccccc2)NC(=O)[C@H](CCN)NC1=O)[C@@H](C)O [Compound 81] (H-C(Ethyl(2-propionyloxy))T[Dap][Dab][Dab][dF]L[Dab][Dab]T; lactam 4-C)
1 µg/mL (≈ 0.868 µM) | CCC(=O)OCCSC[C@@H](N)C(=O)N[C@H](C(=O)N[C@@H](CN)C(=O)N[C@H]1CCNC(=O)[C@H]([C@@H](C)O)NC(=O)[C@H](CCN)NC(=O)[C@H](CCN)NC(=O)[C@H](CC(C)C)NC(=O)[C@@H](Cc2ccccc2)NC(=O)[C@H](CCN)NC1=O)[C@@H](C)O [Compound 82] (H-[dC](Ethyl(2-propionyloxy))T[Dap][Dab][Dab][dF]L[Dab][Dab]T; lactam 4-C)

The next lines start with the compound.

Compound | MIC E. coli ATCC 25922
CCC(=O)OCCSCCC(=O)N[C@H](C(=O)N[C@@H](CCN)C(=O)N[C@H]1CCNC(=O)[C@H]([C@@H](C)O)NC(=O)[C@H](CCN)NC(=O)[C@H](CCN)NC(=O)[C@H](CC(C)C)NC(=O)[C@@H](Cc2ccccc2)NC(=O)[C@H](CCN)NC1=O)[C@@H](C)O [Compound 63] ([Mpa](Ethyl(2-propionyloxy))T[Dab][Dab][Dab][dF]L[Dab][Dab]T; lactam 4-C) | 8 µg/mL (≈ 6.95 µM)
CCCCCCCC(=O)OCCSC[C@H](N)C(=O)N[C@H](C(=O)N[C@@H](CCN)C(=O)N[C@H]1CCNC(=O)[C@H]([C@@H](C)O)NC(=O)[C@H](CCN)NC(=O)[C@H](CCN)NC(=O)[C@H](CC(C)C)NC(=O)[C@@H](Cc2ccccc2)NC(=O)[C@H](CCN)NC1=O)[C@@H](C)O [Compound 68] (H-C(X4)T[Dab][Dab][Dab][dF]L[Dab][Dab]T; lactam 4-C) | 1 µg/mL (≈ 0.809 µM)
CCCCCCCCCC(=O)OCCSC[C@H](N)C(=O)N[C@H](C(=O)N[C@@H](CCN)C(=O)N[C@H]1CCNC(=O)[C@H]([C@@H](C)O)NC(=O)[C@H](CCN)NC(=O)[C@H](CCN)NC(=O)[C@H](CC(C)C)NC(=O)[C@@H](Cc2ccccc2)NC(=O)[C@H](CCN)NC1=O)[C@@H](C)O [Compound 69] (H-C(Ethyl(2-decanoyloxy))T[Dab][Dab][Dab][dF]L[Dab][Dab]T; lactam 4-C) | 2 µg/mL (≈ 1.58 µM)
CCCCCCCCCCCC(=O)OCCSC[C@H](N)C(=O)N[C@H](C(=O)N[C@@H](CCN)C(=O)N[C@H]1CCNC(=O)[C@H]([C@@H](C)O)NC(=O)[C@H](CCN)NC(=O)[C@H](CCN)NC(=O)[C@H](CC(C)C)NC(=O)[C@@H](Cc2ccccc2)NC(=O)[C@H](CCN)NC1=O)[C@@H](C)O [Compound 70] (H-C(X14)T[Dab][Dab][Dab][dF]L[Dab][Dab]T; lactam 4-C) | 8 µg/mL (≈ 6.19 µM)
CC(C)C[C@@H]1NC(=O)[C@@H](Cc2ccccc2)NC(=O)[C@H](CCN)NC(=O)[C@@H](NC(=O)[C@H](CCN)NC(=O)[C@@H](NC(=O)[C@@H](N)CSCCOC(=O)C(C)(C)C)[C@@H](C)O)CCNC(=O)[C@H]([C@@H](C)O)NC(=O)[C@H](CCN)NC(=O)[C@H](CCN)NC1=O [Compound 71] (H-C(Ethyl(2-OPiv))T[Dab][Dab][Dab][dF]L[Dab][Dab]T; lactam 4-C) | 32 µg/mL (≈ 26.8 µM)
CC(C)C[C@@H]1NC(=O)[C@@H](Cc2ccccc2)NC(=O)[C@H](CCN)NC(=O)[C@@H](NC(=O)[C@H](CCN)NC(=O)[C@@H](NC(=O)[C@@H](N)CSCCOC(=O)c2ccc(C(C)(C)C)cc2)[C@@H](C)O)CCNC(=O)[C@H]([C@@H](C)O)NC(=O)[C@H](CCN)NC(=O)[C@H](CCN)NC1=O [Compound 73] (H-C(CH2CH2OBz(4-tBu))T[Dab][Dab][Dab][dF]L[Dab][Dab]T; lactam 4-C) | 1 µg/mL (≈ 0.787 µM)
CCCCCCCC(=O)OCCSC[C@@H](N)C(=O)N[C@H](C(=O)N[C@@H](CCN)C(=O)N[C@H]1CCNC(=O)[C@H]([C@@H](C)O)NC(=O)[C@H](CCN)NC(=O)[C@H](CCN)NC(=O)[C@H](CC(C)C)NC(=O)[C@@H](Cc2ccccc2)NC(=O)[C@H](CCN)NC1=O)[C@@H](C)O [Compound 77] (H-[dC](X4)T[Dab][Dab][Dab][dF]L[Dab][Dab]T; lactam 4-C) | 0.25 µg/mL (≈ 0.202 µM)
CC(C)C[C@@H]1NC(=O)[C@@H](Cc2ccccc2)NC(=O)[C@H](CCN)NC(=O)[C@@H](NC(=O)[C@H](CCN)NC(=O)[C@@H](NC(=O)[C@H](N)CSCCOC(=O)C(C)(C)C)[C@@H](C)O)CCNC(=O)[C@H]([C@@H](C)O)NC(=O)[C@H](CCN)NC(=O)[C@H](CCN)NC1=O [Compound 79] (H-[dC](Ethyl(2-OPiv))T[Dab][Dab][Dab][dF]L[Dab][Dab]T; lactam 4-C) | 0.25 µg/mL (≈ 0.209 µM)
CC(C)C[C@@H]1NC(=O)[C@@H](Cc2ccccc2)NC(=O)[C@H](CCN)NC(=O)[C@@H](NC(=O)[C@H](CCN)NC(=O)[C@@H](NC(=O)[C@H](N)CSCCOC(=O)c2ccc(C(C)(C)C)cc2)[C@@H](C)O)CCNC(=O)[C@H]([C@@H](C)O)NC(=O)[C@H](CCN)NC(=O)[C@H](CCN)NC1=O [Compound 80] (H-[dC](CH2CH2OBz(4-tBu))T[Dab][Dab][Dab][dF]L[Dab][Dab]T; lactam 4-C) | 0.5 µg/mL (≈ 0.394 µM)
CCC(=O)OCCSCCC(=O)N[C@H](C(=O)N[C@@H](CN)C(=O)N[C@H]1CCNC(=O)[C@H]([C@@H](C)O)NC(=O)[C@H](CCN)NC(=O)[C@H](CCN)NC(=O)[C@H](CC(C)C)NC(=O)[C@@H](Cc2ccccc2)NC(=O)[C@H](CCN)NC1=O)[C@@H](C)O [Compound 83] ([Mpa](Ethyl(2-propionyloxy))T[Dap][Dab][Dab][dF]L[Dab][Dab]T; lactam 4-C) | 2 µg/mL (≈ 1.76 µM)

Same assay, conditions: median of triplicate

Compound | MIC E. coli ATCC 25922
CC(C)C[C@@H]1NC(=O)[C@@H](Cc2ccccc2)NC(=O)[C@H](CCN)NC(=O)[C@@H](NC(=O)[C@H](CCN)NC(=O)[C@@H](NC(=O)[C@@H](N)CSCCOC(=O)c2ccccc2)[C@@H](C)O)CCNC(=O)[C@H]([C@@H](C)O)NC(=O)[C@H](CCN)NC(=O)[C@H](CCN)NC1=O [Compound 72] (H-C(Ethyl(2-OBz))T[Dab][Dab][Dab][dF]L[Dab][Dab]T; lactam 4-C) | 8 µg/mL (≈ 6.59 µM)
